Patent US9034846B2, “Use of cyclodextrin for treatment and prevention of bronchial inflammatory diseases” (UNIVERSITE DE LIEGE, priority 2004, dated 2015)

Legend:
OVA exposed mice [1] = experiment: Bronchoalveolar lavage differential cell counts, OVA mouse model of asthma; type: in vivo; conditions: for Eosinophils (%) in BAL / Epithelial cells (%) in BAL / Lymphocytes (%) in BAL / Macrophages (%) in BAL / Neutrophils (%) in BAL / Total cells (10^4/ml) in BAL: Table 2
Experimental: (§1) In order to study modulation of airway inflammation, males BALB/c mice of 6 to 8 weeks old were sensitized by intraperitoneal injection of 10 μg ovalbumin (OVA) (Sigma Aldrich, Schnelldorf, Germany) emulsified in aluminum hydroxyde (AlumInject; Perbio, Erembodegem, Belgium) on days 1 and 8. Mice were subsequently exposed to allergens by daily inhalation of an aerosol of OVA 1%, for 30 minutes, generated by ultrasonic nebulizer (Devilbiss 2000), from day 21 to 27. Mice were subjected to inhalation of β-CD, HP-β-CD HP 1, 7.5, 50 mM and HP-β-CD 50 mM 30 minutes before OVA inhalation. Mice were sacrificed performed on day 28 as previously reported by Cataldo and al in Am. J. Pathol 2002; 161(2):491-498.
Immediately after assessment of airway responsiveness, and 24 hours after the last allergen exposure.
Mices were sacrificed and a bronchoalveolar lavage was performed using 4×1 ml PBS-EDTA 0.05 mM (Calbiochem, Darmstadt, Germany) as previously described by Cataldo D D, Tournoy K G, Vermaelen K et al. in Am J Pathol 2002; 161(2):491-498. Cells were recovered by gentle manual aspiration. After centrifugation of bronchoalveolar fluid (BALF) (1200 rpm for 10 minutes, at 4° C.), the supernatant was frozen at −80° C. for protein assessment and the cell pellet was resuspended in 1 ml PBS-EDTA 0.05 mM. The differential cell counts were performed on cytocentrifuged preparations (Cytospin) after staining with Diff-Quick (Dade, Belgium).

OVA exposed mice [2] = experiment: Peribronchial eosinophil infiltration (Congo Red), OVA mouse model; type: in vivo; conditions: FIG. 3
Experimental: as §1
After BAL, the thorax was opened and the left main bronchus was clamped. The left lung was excised and frozen immediately at −80° C. for protein and mRNA extraction. The right lung was infused with 4 ml paraformaldehyde 4%, embedded in paraffin and used for histology. Sections of 5 μm thickness were cut off from paraffin and were stained with haematoxylin-eosin. The extent of peribronchial inflammation was estimated by a score calculated by quantification of peribronchial inflammatory cells, as previously described by Cataldo D D, Tournoy K G, Vermaelen K et al. in Am J Pathol 2002; 161(2):491-498. A value of 0 was adjudged when no inflammation was detectable, a value of 1 when there was occasionally inflammatory cells, a value of 2 when most bronchi were surrounded by a thin layer (1 to 5 cells) of inflammatory cells and a value of 3 when most bronchi were surrounded by a thick layer (>5 cells) of inflammatory cells. Since 5-7 randomly selected tissue sections per mouse were scored, inflammation scores are expressed as a mean value and can be compared between groups. After Congo Red staining, the eosinophilic infiltration in the airway walls was quantified by manual count and reported to the perimeter of epithelial basement membrane defining an eosinophilic inflammatory score.

OVA exposed mice [3] = experiment: Bronchial responsiveness to methacholine (Penh, barometric plethysmograph); type: in vivo, mouse
Experimental: as §1, with “Mice were subjected to inhalation of β-CD, HP-β-CD HP 1, 7.5, 50 mM and HP-β-CD 50 mM 30 minutes before OVA inhalation.” left out
Twenty-four hours after the last allergen exposure, the bronchial hyper responsiveness was determined by measuring the Penh (Enhanced Pause) using a barometric plethysmograph (Emka technologies, Paris) as proposed by Hamelmann, E., et al., Am. J. Respir. Crit. Care Med. 156 (1997) 766-775). The Penh was measured at baseline and […] after the inhalation of increasing doses (25, 50, 75 and 100 mM) of methacholine (Mch).

CXCL-1 = CXCL-1 ELISA in lung protein extracts, LPS-induced inflammation model; type: in vivo, mouse; conditions: aerosolized 15 mM, vs placebo, FIG. 13
Experimental: In lipopolysaccharide (LPS)-induced inflammation model, mice were exposed to 3 μg LPS diluted in 100 μl of PBS or PBS (phosphate buffer saline) only administered by direct tracheal instillations at day 1 and 5 of the protocol. Mice were daily exposed either to aerosolized hydroxypropyl-beta-cyclodextrin (15 mM) or PBS for 30 min from day 0 to 5 (6 hours after LPS or sham exposure at days 1 and 5). Mice were sacrificed at day 6.
After sacrifice, thorax was opened and the right lungs were excised and snap frozen in liquid nitrogen for protein extraction. The left lung was insufflated at constant pressure with 4% paraformaldehyde and embedded in paraffin for further histological analysis. A peribronchial inflammation score was applied on each hematoxylin-eosin stained slide as previously reported (Cataldo et al Am J Pathol 2002). A value from 0 to 2 was adjudged to each bronchus. Score of 0 corresponded to bronchi without inflammation; score 1 to occasional mononuclear cells observed around bronchi, and score 2 to 1 to 5 layer(s) of inflammatory cells around bronchi. Six bronchi per mice were counted and statistical analysis was performed by using GraphPad Program. […] ELISA for CXCL-1 on lung protein extracts were assessed using antibodies from R&D Systems and the R&D Duoset® Elisa Development kit (R&D Systems, Minneapolis, Minn., USA).

Substance: hydroxypropyl-βcyclodextrin [HP-β-CD]
- BAL eosinophils (OVA exposed mice [1]; 1, 7.5 and 50 mM inhalation, FIG. 1): dose dependent decrease
- Eosinophils (%) in BAL (OVA exposed mice [1]; 1 mM): 34.2 ± 7.705 %
- Epithelial cells (%) in BAL (OVA exposed mice [1]; 1 mM): 25.08 ± 3.413%
- Lymphocytes (%) in BAL (OVA exposed mice [1]; 1 mM): 0.48 ± 0.1869%
- Macrophages (%) in BAL (OVA exposed mice [1]; 1 mM): 39.75 ± 5.427%
- Neutrophils (%) in BAL (OVA exposed mice [1]; 1 mM): 0.36 ± 0.1563%
- Total cells (10^4/ml) in BAL (OVA exposed mice [1]; 1 mM): 74.92 ± 14.396 10^4/ml
- Eosinophils (%) in BAL (OVA exposed mice [1]; 10 mM): 27.24 ± 4.98 %
- Epithelial cells (%) in BAL (OVA exposed mice [1]; 10 mM): 34.44 ± 3.723%
- Lymphocytes (%) in BAL (OVA exposed mice [1]; 10 mM): 0.21 ± 0.08571%
- Macrophages (%) in BAL (OVA exposed mice [1]; 10 mM): 37.114 ± 3.878%
- Neutrophils (%) in BAL (OVA exposed mice [1]; 10 mM): 0.83 ± 0.5838%
- Total cells (10^4/ml) in BAL (OVA exposed mice [1]; 10 mM): 114.43 ± 33.245 10^4/ml
- Eosinophils (%) in BAL (OVA exposed mice [1]; 50 mM): 12.18 ± 4.366 %
- Epithelial cells (%) in BAL (OVA exposed mice [1]; 50 mM): 45.04 ± 5.534%
- Lymphocytes (%) in BAL (OVA exposed mice [1]; 50 mM): 0.12 ± 0.12%
- Macrophages (%) in BAL (OVA exposed mice [1]; 50 mM): 41.86 ± 9.043%
- Neutrophils (%) in BAL (OVA exposed mice [1]; 50 mM): 0.72 ± 0.3992%
- Total cells (10^4/ml) in BAL (OVA exposed mice [1]; 50 mM): 37.33 ± 10.683 10^4/ml
- BAL eosinophil counts (OVA exposed mice [1]; after allergen exposure, inhalation at 50 mM, FIG. 1): significantly decreased
- Other inflammatory cells in the BAL (OVA exposed mice [1]; after inhalation, compared to placebo): not present in different amounts
- peribronchial eosinophil infiltration (OVA exposed mice [2]; 50 mM): decrease reached statistical significance
- peribronchial eosinophil infiltration (OVA exposed mice [2]; 1 and 7.5 mM): decrease reached statistical significance
- area under the methacholine dose-response curve (A.U.C) (OVA exposed mice [3]; 50 mM): significant decrease
- methacholine-induced Penh increase (OVA exposed mice [3]; 50 mM inhalation, FIG. 4): reduced
- Levels of CXCL-1 in lung protein extracts (CXCL-1): significantly decreased
